Reference: patent US10160726B2, “Quinolone derivatives as antibacterials” (priority 2014, dated 2018)
Counter-ions that a name gives are not always drawn.

What was measured:
[1] = target: E. coli DNA gyrase (GyrA-B) (Escherichia coli, UniProt P0AES4); test: Supercoiling assay of E. coli gyrase; type: biochemical; settings: supercoiling activity of E. coli gyrase (GyrA-B); read-out: GyrA-B IC50 (Enzyme)
Experimental: Method 1: Supercoiling Assay of E. Coli Gyrase
Enzymatic activity of E. coli DNA gyrase reconstituted from its purified subunits was assessed by monitoring the introduction of supercoils into the relaxed plasmid pHOT-1 (TopoGEN, TG2035-3). To form the functional gyrase A2B2 heterotetrameric enzyme, equal molar concentrations of the GyrA and GyrB subunits were combined at high protein concentration (500 nM) and incubated on ice for 1 hour prior to assay start in reaction buffer without ATP or the pHOT-1 plasmid. The reaction mixture (25 μl) contained 10 nM enzyme, 10 ng/μl pHOT-1, 1 mM ATP, 35 mM Tris-HCl pH 7.5, 24 mM KCl, 4 mM MgCl2, 2 mM DTT, 1.8 mM spermidine, 6.5% glycerol, and 100 μg/ml bovine serum albumin. The reaction was carried out at 37° C. for 90 minutes and terminated by the addition of 2.5 μl of 10× stop solution (0.9% SDS, 50% glycerol, 0.05% bromophenol blue). […] Gels were stained with ethidium bromide (0.5 μg/ml) for 30 minutes and destained in water for 20 minutes. All gels were analyzed using the BIO-RAD ChemiDocTm XRS+ with Image Lab 3.0 software. The 50% inhibition concentration (IC50) was determined as being the compound concentration at which the supercoiled band was reduced by 50% from the DMSO drug free control (Microsoft Excel 2010 IDBS XLfit, GraftPad Prism 6).

[2] = system: P. aeruginosa NB52023-CDK0006 (gyrA T83I, parC S87L); test: microbe, parasite or virus in culture; type: cell-based; settings: Pseudomonas aeruginosa, 20 h, read-out: Antibacterial activity (MIC) NB52023-CDK0006
[3] = target: E. coli DNA topoisomerase IV (Topo IV, ParC-E) (Escherichia coli, UniProt P0AFI2); test: Decatenation assay of E. coli Topo IV; type: biochemical; settings: decatenation activity of E. coli topoIV (ParC-E); read-out: ParC-E IC50 (Enzyme)
Sequence of E. coli DNA topoisomerase IV (Topo IV, ParC-E) (P0AFI2 whole entry): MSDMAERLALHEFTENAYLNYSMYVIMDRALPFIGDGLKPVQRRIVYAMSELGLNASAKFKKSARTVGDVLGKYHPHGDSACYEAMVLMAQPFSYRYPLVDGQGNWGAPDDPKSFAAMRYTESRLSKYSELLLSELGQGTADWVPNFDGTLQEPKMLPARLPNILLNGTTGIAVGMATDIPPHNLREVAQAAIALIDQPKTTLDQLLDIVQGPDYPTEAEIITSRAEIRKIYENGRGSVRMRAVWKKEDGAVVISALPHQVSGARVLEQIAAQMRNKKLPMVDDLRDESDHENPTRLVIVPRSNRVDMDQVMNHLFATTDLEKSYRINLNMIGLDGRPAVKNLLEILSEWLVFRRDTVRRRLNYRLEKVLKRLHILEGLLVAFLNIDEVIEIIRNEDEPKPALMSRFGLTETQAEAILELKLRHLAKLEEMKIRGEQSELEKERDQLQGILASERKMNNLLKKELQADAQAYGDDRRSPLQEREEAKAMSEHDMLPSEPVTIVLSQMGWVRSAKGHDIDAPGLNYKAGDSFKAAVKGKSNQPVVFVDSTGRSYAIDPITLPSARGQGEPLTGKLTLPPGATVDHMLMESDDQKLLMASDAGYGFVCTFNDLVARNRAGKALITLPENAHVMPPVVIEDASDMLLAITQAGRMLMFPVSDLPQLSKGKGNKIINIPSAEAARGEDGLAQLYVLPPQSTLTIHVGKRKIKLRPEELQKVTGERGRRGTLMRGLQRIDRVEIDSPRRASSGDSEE
Sequence of E. coli DNA topoisomerase IV (Topo IV, ParC-E) (P20083 whole entry, further chain): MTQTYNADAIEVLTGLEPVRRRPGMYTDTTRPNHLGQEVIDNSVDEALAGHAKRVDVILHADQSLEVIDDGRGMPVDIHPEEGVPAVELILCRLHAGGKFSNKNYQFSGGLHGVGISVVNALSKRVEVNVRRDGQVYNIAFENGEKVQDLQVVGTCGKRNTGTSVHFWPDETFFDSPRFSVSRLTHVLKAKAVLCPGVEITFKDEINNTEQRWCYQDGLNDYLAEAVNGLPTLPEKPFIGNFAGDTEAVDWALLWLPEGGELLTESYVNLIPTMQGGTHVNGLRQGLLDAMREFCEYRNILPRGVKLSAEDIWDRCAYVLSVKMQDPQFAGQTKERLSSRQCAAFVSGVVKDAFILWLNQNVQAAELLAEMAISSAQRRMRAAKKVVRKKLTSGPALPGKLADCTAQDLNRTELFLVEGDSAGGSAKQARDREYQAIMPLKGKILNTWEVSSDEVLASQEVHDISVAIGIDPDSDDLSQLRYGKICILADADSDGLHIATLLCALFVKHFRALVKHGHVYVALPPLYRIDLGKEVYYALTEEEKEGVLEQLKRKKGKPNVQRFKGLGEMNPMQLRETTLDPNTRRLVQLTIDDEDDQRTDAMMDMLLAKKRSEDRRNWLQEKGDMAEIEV
Experimental: Method 2: Decatenation Assay of E. Coli Topo IV
Enzymatic activity of the E. coli DNA topoisomerase IV (Topo IV) reconstituted from its purified subunits was monitored by the decatenation of kinetoplast DNA into minicircles (kDNA, TopoGEN, TG2013-3). To form the functional Topo IV C2E2 heterotetrameric enzyme, equal molar concentrations of the ParC and ParE subunits were combined at high protein concentration (500 nM) and incubated on ice for 1 hour prior to assay start in reaction buffer without ATP or the kDNA. […] The reaction was carried out at 37° C. for 2 hours and terminated by the addition of 2.5 μl of 10× stop solution (0.9% SDS, 50% glycerol, 0.05% bromophenol blue). […] Gels were stained with ethidium bromide (0.5 μg/ml) for 30 minutes and distained in water for 20 minutes. All gels were analyzed using the BIO-RAD ChemiDoc™ XRS^+ with Image Lab 3.0 software. The 50% inhibitor concentration (IC50) was determined as being the compound concentration at which the presence of the kDNA minicircles in the gel was reduced by 50% from the DMSO drug free control (Microsoft Excel 2010 IDBS XLfit, Graph Pad Prism 6).

[4] = system: S. aureus NB01006-AVR005 (gyrA S84L, grlA S80F, grlB E471K); test: microbe, parasite or virus in culture; type: cell-based; settings: Staphylococcus aureus, 20 h, read-out: Antibacterial activity (MIC) NB01006-AVR005
[5] = system: P. aeruginosa NB52023 (efflux deficient K1542, ΔmexX ΔmexB); test: microbe, parasite or virus in culture; type: cell-based; settings: Pseudomonas aeruginosa, 20 h, read-out: Antibacterial activity (MIC) NB52023
[6] = system: E. coli NB27177 (efflux deficient CGSC 11430, ΔtolC732::kan); test: microbe, parasite or virus in culture; type: cell-based; settings: Escherichia coli, 20 h, read-out: Antibacterial activity (MIC) NB27177
[7] = system: P. aeruginosa NB52019 (wild-type PAO1); test: MIC, broth microdilution (CLSI); type: cell-based; settings: Pseudomonas aeruginosa, PAO1, 20 h; read-out: Antibacterial activity (MIC) NB52019
[8] = system: S. aureus ATCC 29213 (NB01001); test: MIC, broth microdilution (CLSI); type: cell-based; settings: Staphylococcus aureus, ATCC29213; S. aureus ATCC 29213; 35° C., 20 hours; read-out: Antibacterial activity (MIC) NB01001
[9] = system: E. coli ATCC 25922 (NB27001); test: MIC, broth microdilution (CLSI); type: cell-based; settings: Escherichia coli, ATCC25922; E. coli ATCC 25922; 35° C., 20 hours; read-out: Antibacterial activity (MIC) NB27001

Sequence of E. coli DNA gyrase (GyrA-B) (P0AES4 whole entry): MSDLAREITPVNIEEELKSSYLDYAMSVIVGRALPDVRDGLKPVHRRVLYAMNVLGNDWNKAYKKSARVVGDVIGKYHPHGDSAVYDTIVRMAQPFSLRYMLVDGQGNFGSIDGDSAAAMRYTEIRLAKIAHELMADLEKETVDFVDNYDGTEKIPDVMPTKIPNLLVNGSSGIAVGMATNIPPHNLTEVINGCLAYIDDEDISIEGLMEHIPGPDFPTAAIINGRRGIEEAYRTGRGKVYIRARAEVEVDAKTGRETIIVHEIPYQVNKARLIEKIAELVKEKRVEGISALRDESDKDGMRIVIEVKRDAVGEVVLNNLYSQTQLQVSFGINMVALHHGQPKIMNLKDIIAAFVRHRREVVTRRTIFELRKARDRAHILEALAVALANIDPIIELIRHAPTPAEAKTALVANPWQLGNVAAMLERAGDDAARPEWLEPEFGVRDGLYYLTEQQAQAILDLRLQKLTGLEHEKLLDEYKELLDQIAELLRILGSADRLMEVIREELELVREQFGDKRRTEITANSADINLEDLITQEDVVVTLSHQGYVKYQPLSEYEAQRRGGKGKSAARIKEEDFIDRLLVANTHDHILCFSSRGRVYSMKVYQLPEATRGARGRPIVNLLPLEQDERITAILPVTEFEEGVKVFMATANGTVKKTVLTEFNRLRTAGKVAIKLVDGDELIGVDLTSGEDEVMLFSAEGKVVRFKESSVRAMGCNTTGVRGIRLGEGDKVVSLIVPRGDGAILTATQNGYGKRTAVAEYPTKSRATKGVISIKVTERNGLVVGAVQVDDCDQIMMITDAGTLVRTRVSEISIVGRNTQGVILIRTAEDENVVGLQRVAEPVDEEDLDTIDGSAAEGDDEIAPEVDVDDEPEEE

Work on `Cc1c(N2CC[C@@H]([C@H](C)N)C2)ccc2ccc(=O)n(C3CC3)c12` [Example 76, 7-((R)-3-((S)-1-aminoethyl)pyrrolidin-1-yl)-1-cyclopropyl-8-methylquinolin-2(1H)-one trifluoroacetic acid salt] yielded an IC50 [1] of 6.8 µM, an MIC [2] of 16 µg/mL and an IC50 [3] of 38.5 µM. The MIC [4] was 0.5 µg/mL, the MIC [5] was 8 µg/mL and the MIC [6] was 0.125 µg/mL. It also gave an MIC [7] of 32 µg/mL, an MIC [8] of 0.25 µg/mL and an MIC [9] of 4 µg/mL.
With `Cc1c(N2CC[C@@H]([C@H](C)N)C2)ccc2cc(O)c(=O)n(C3CC3)c12` [Example 79, 7-((R)-3-((S)-1-aminoethyl)pyrrolidin-1-yl)-1-cyclopropyl-3-hydroxy-8-methylquinolin-2(1H)-one TFA salt] the IC50 [1] was 2.44 µM, the MIC [2] was > 32 µg/mL and the IC50 [3] was 1.84 µM. The MIC [4] was 8 µg/mL, the MIC [5] was > 32 µg/mL and the MIC [6] was 1 µg/mL. For the same molecule, the MIC [7] was > 32 µg/mL, the MIC [8] was 2 µg/mL and the MIC [9] was 8 µg/mL.
